# Test results as given in patent US20230097085A1, “[6R]-MTHF IN 5-FU BASED CHEMOTHERAPY OF RIGHT-SIDED COLORECTAL CANCER” (Isofol Medical AB, priority 2021, published 2023).
# Tested on: solid colorectal cancer tumors (metastatic colorectal cancer)
# Assay: Clinical study ISO-CC-005 (safety extension cohorts #18/#19 and Follow-up study): tumour response by CT/MRI per RECIST 1.1
# Assay type: in vivo, human
# Excerpt: As used herein, the term ORR shall refer to the Objective Response Rate, ie. the proportion of patients with reduction in tumor burden of a predefined amount. […] (Note: the appearance of one or more new lesions is also considered progression). […] 2019. The completion of the study was announced in January 2020. In total, 105 patients were included in the study. Applicant completed the dose definition part of ISO-CC-005 in March 2018, which evaluated the safety and efficacy of arfolitixorin in patients with mCRC. Shortly after, applicant started two additional treatment groups in 2018 to generate more safety and efficacy data, i.e. the safety extension Cohort #18 (Treatment Arm #4) and Cohort #19 (Treatment Arm #6). The aim was to evaluate as many patients as possible from the additional treatment groups after a treatment period of 16 weeks+. On 30 Sep. 2020, applicant announced response assessment data from the two safety extension cohorts (31 patients) treated for 16 weeks or longer (press release: 55% Overall Response Rate on the safety extension cohorts of the ISO-CC-005 Phase Ulla study BioSpace). […] Out of the 31 patients, 17 were treated with an ARFOX regimen. Clinical Study ISO-CC-005 was an exploratory, […] multiple-centre study to be carried out in Stadium IV CRC patients. […] In the Main Study, patients received study treatment with arfolitixorin during eight (8) weeks. Patients eligible for the Follow-up study could participate until reaching progress, but no longer than 18 months. Enrolled patients, stadium IV CRC patients, were aware of the relatively poor prognosis of their disease. Those patients who could continue benefitting from treatment with a […] effective therapy, were offered the possibility to continue study treatment by participating in the Follow-up Study. In the Follow-up Study patients continued to receive the same treatment as assigned during the Main Study period. However, the Investigator could complete the allocated treatment with other therapeutic agents of choice in alignment with standard of care in order to adapt treatment to the patient's specific needs and, in this way, provide optimal care. Response was measured in short- and long-term assessments. During the Main Study phase, only short-term assessments of tumour response were explored by means of objective response rate (ORR) and early tumour shrinkage (ETS). These assessments were to be used as indicators of prognostic factor in ascertaining earlier non responders and to explore the correlation to other factors such as folate levels, tumour biomarkers, or expression levels of certain key genes. […]
smiles,measurement,setting,value
"Nc1nc2c(c(=O)[nH]1)N1CN(c3ccc(C(=O)N[C@@H](CCC(=O)O)C(=O)O)cc3)C[C@H]1CN2 [arfolitixorin, [6R]-5,10-methylenetetrahydrofolate]",best overall response rate (ORR),"31 patients of the two safety extension cohorts treated 16 weeks or longer, 120 mg/m2 arfolitixorin + 5-FU with irinotecan or oxaliplatin (ARFIRI/ARFOX)",55%
same,progression of solid tumors between 8 and 16 weeks after initiating treatment,"[6R]-MTHF and 5-FU, treatment period of at least 8 weeks, Phase I/IIa study ISO-CC-005",No statistically significant progression
same,best ORR in patients diagnosed with RCRC,"right-sided CRC patients (13) of the 31-patient group, after 16 weeks and beyond, 120 mg/m2 arfolitixorin + 5-FU + irinotecan or oxaliplatin",46%
same,best ORRs (objective response rates) that can be achieved,"right-sided CRC patients incl. BRAF/KRAS mutation-positive, protocol over at least 16 weeks with multiple rapid boluses",> 50%
